Earlier results in patent US20110086369A1, “FLUORESCENT COMPOUNDS FOR THE DIAGNOSIS OF INFECTIONS, PRODUCTION METHOD, AND APPLICATIONS THEREOF” (priority 2008, published 2011).

System: Leishmania
Conditions: in Leishmania

CCCCCCCCCCCCCCCCOP(=O)([O-])OCC[N+](C)(C)C [MT, hexadecylphosphocholine]
intracellular concentration: values in the millimolar rank
